“And” between values parts separate entries of the source, which are not always exact repeats. Equal values may be shown once. The source made the active and inactive calls. Bounds are passed on as bounds.

The target in series [1] is Cytochrome P450 3A4 (Homo sapiens, UniProt P08684).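 Further: CYP3A4 tested as one member of a cytochrome P450 panel screen.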
The target in series [2] is Cytochrome P450 2D6 (Homo sapiens, UniProt P10635).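 Further: CYP2D6 member of a cytochrome P450 panel assay.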
Series [3] addresses Cytochrome P450 2C19 (Homo sapiens, UniProt P33261). As to the kind of experiment: Cytochrome panel assay with activity outcomes. Panel member name: p450-cyp2c19 Compounds with AC50 equal or less than 10 uM are considered active. It is filed as functional.
A short description of series [4]: Luminescence Cell-Based Dose Response HTS to Identify Inhibitors of 5'UTR Stem-Loop Driven Prion Protein mRNA Translation in H4 Neuroglioblastoma Cells. [Related pubchem assays: 1827 (Project Summary), 1813 (Primary HTS)]. The class given is functional.
Series [5] is described as follows: luciferase reporter signal suppression in cells – H4 neuroglioma cells, luminescence, dose response (AID 1990). The class given is functional, cell-based. In general terms: A reporter such as luciferase makes a cellular process visible.
A short description of series [6]: alpha-synuclein stem-loop luciferase translation blockers – H4 neuroglioma cells, luminescence, confirmation (AID 1988). It is filed as functional, cell-based.
Series [7] concerns the target Cytochrome P450 2C9 (Homo sapiens, UniProt P11712).
The target of series [8] is T1, Heat shock factor protein 1 (Mus musculus, UniProt P38532).
T1 sequence (P38532 whole entry): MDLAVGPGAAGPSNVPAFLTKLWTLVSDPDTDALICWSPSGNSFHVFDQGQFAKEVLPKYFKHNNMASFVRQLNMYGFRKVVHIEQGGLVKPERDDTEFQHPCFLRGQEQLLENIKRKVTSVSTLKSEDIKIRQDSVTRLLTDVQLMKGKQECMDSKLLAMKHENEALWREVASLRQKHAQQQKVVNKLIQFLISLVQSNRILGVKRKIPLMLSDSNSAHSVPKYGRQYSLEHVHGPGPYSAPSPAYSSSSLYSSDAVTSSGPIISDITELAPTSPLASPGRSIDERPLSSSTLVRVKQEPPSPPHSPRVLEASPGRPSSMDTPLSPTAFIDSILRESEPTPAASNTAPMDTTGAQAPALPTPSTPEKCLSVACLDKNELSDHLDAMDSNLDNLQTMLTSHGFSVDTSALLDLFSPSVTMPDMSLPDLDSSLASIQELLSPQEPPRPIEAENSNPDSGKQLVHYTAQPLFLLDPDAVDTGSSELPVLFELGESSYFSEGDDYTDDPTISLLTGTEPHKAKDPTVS
The experiment in a line: decrease of HSF1-responsive luciferase luminescence – cell-based, NIH3T3, dose retest, confirmation (AID 2382).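 Further: NIH3T3 fibroblasts with HSF1-driven luciferase reporter stressed by proteasome inhibitor MG132; luminescence from HSF1-driven luciferase expression after 8 hours of MG132 stress.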 It is filed as functional.

Series [9] deals with T2, Corticotropin-releasing factor receptor 2/Corticotropin-releasing factor-binding protein (Homo sapiens, UniProt P24387+Q13324).
T2 sequence (Q13324 whole entry): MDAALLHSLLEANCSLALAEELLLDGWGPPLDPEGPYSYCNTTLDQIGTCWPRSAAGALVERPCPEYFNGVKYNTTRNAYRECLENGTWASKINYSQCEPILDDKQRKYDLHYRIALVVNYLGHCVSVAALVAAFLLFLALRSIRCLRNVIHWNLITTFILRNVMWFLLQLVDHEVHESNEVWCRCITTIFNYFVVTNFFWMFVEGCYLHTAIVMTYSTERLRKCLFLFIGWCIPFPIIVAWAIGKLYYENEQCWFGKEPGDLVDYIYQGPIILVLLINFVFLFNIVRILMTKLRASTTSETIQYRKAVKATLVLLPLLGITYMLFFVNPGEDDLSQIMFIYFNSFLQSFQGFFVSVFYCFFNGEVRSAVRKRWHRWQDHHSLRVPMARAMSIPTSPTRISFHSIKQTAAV
T2 sequence (P24387 whole entry): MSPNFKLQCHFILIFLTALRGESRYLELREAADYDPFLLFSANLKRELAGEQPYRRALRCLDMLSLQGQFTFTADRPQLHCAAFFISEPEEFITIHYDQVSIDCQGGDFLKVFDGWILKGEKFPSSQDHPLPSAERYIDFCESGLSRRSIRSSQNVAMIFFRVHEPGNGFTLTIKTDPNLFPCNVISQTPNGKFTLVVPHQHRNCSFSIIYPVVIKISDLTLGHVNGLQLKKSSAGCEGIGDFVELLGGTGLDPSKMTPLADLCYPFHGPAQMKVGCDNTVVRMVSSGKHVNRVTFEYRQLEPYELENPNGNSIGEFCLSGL
The experiment in a line: activators of CRF receptor 2 with binding protein – uHTS hits, confirmation (AID 602473). The class given is functional. The note with it: read-out: EC50_Mean.

Cytochrome P450 2C9, sequence (P11712 whole entry): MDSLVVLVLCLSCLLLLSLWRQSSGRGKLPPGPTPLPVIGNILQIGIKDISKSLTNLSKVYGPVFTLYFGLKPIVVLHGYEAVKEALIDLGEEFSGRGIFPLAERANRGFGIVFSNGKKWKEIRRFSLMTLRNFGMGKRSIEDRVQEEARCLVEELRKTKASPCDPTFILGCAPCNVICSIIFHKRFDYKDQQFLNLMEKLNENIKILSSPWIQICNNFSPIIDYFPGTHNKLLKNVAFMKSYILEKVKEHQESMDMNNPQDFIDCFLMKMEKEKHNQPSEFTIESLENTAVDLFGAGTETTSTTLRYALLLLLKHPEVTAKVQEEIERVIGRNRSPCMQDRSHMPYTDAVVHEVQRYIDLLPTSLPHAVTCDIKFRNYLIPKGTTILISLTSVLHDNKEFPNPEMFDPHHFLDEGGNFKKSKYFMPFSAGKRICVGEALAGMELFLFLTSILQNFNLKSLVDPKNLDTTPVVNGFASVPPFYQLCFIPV
Cytochrome P450 3A4, sequence (P08684 whole entry): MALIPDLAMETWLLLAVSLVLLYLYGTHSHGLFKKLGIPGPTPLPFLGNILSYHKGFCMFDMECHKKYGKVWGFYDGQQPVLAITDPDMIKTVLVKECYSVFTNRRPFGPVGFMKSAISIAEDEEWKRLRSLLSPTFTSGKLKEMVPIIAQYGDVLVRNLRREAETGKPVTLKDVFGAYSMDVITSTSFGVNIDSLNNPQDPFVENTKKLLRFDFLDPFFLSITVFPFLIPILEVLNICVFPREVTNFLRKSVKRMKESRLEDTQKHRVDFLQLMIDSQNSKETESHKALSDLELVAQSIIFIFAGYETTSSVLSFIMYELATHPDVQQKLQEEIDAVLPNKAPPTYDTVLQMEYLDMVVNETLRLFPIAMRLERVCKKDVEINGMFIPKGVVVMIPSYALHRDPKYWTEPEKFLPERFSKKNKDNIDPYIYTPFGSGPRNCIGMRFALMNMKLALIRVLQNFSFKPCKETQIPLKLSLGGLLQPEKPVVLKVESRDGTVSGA
Cytochrome P450 2C19, sequence (P33261 whole entry): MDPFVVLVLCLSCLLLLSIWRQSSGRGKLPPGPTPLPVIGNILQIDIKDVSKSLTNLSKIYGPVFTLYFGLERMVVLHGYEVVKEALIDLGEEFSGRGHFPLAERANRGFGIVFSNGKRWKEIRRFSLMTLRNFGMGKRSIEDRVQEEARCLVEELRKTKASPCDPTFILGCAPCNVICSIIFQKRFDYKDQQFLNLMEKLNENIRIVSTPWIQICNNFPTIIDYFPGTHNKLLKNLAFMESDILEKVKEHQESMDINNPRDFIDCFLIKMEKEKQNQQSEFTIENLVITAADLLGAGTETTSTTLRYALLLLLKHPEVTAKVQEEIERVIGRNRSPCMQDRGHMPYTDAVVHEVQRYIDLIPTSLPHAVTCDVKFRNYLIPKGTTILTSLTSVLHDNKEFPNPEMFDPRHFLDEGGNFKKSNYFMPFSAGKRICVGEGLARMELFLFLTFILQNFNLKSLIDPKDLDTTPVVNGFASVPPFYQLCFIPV
Cytochrome P450 2D6, sequence (P10635 whole entry): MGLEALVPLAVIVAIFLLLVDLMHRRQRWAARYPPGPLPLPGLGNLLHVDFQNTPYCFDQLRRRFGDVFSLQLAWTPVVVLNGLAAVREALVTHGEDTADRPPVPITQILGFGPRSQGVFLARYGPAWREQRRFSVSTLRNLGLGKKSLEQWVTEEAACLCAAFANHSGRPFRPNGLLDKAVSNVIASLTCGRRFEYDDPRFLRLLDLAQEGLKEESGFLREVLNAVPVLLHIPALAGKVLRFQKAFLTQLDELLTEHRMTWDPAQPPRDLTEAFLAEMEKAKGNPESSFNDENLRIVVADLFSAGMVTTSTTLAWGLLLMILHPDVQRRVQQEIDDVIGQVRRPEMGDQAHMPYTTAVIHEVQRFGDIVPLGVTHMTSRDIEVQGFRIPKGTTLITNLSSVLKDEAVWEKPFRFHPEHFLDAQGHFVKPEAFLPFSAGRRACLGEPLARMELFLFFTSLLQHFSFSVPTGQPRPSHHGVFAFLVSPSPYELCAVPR

Usually AC50 stands for the concentration at which the activity in the assay is half-maximal. For the molecule `C[C@H](N)Cc1c[nH]c2ccc(OCc3cccs3)cc12`, the half-maximal activity concentration (AC50) in series [1] was 15.8 µM (inconclusive) and 12.6 µM (inconclusive). For the molecule `Cc1noc(C)c1-c1nccc(N(C)C)n1`, the half-maximal activity concentration (AC50) in series [1] is 31.6 µM (inconclusive). For the molecule `c1ccc(Nc2ncnc3ccc(-c4ccoc4)cc23)cc1`, the half-maximal activity concentration (AC50) in [2] was 20 µM (inconclusive).

Regarding `COc1ccc([N+](=O)[O-])cc1COc1ccc2c(-c3ccccc3)cc(=O)oc2c1`, the AC50 in series [3] (read-out: AC50) is 3.55 µM (inconclusive).

Turning to `COc1ccc(NC(=O)c2cc(S(=O)(=O)N3CCCCC3)c[nH]2)cc1Cl`, the figures for the EC50 in series [4], in series [5] and in [6] were 18.4 µM (active), 23.7 µM (active) and > 120 µM (not active), respectively. For `COC(=O)c1c(C)oc2ccc(N(C(=O)c3ccncc3)S(=O)(=O)c3ccc(C)cc3)cc12`, the EC50 in [4] is 10.9 µM (active); in series [5], > 120 µM (not active); in series [6], 8.07 µM (active). Turning to `CN(C)CCNC(=O)C(=O)NCC1OCCCN1S(=O)(=O)c1cccs1` (stereo not drawn), the EC50 in series [4], in series [5] and in [6] was > 120 µM (not active) each time. Turning to `CC(=O)Nc1c(C(=O)N2CCOCC2)cnn1-c1ccc(C)c(C)c1`, the half-maximal activity concentration (AC50) entry was “inconclusive” in series [3] and 3.98 µM (inconclusive) in [1]. Take `Cc1ccccc1NC(=O)NC1(C(=O)N2CCOCC2)CCCCC1`: the EC50 in series [4], in series [5] and in series [6] was > 120 µM (not active) in each case. With `COc1ccc(CNC(=O)[C@H]2C[C@@H]2[C@H](NP(=O)(c2ccccc2)c2ccccc2)c2ccccc2)cc1OC`, the concentration at half-maximal activity (AC50) in [7] was 25.1 µM (inconclusive). In the case of `C=CCn1c(C)cc(C(=O)CSc2nnc(NC(C)C)s2)c1C`, in [8], the EC50 is > 195 µM (not active). Consider `COc1ccc(-n2ncc3c(NCCCN4CCOCC4)ncnc32)cc1`, for which, in series [8], the EC50 is 1.52 µM (active). `O=C(c1cc(C(F)(F)F)cc(C(F)(F)F)c1)N1CCC[C@@]2(CCN(c3ccccc3)C2)C1`: the concentration at half-maximal activity (AC50) in series [1] was 3.16 µM (inconclusive).

Turning to `CCCCCC(=O)Nc1cc2nc(O)cc(COC)c2cc1C`, the AC50 in [7] is 10 µM (inconclusive).

Take `Cc1ccc(NC(=O)CN2CCC(NC(=O)c3cccc(F)c3)CC2)cc1C`: the EC50 in series [4] is 21.6 µM (active); in series [5], > 120 µM (not active); in series [6], > 120 µM (not active).

With `O=C1[C@H]2[C@H]3[C@H](O)[C@H](O)C/C(=N/OC[C@@H](O)COCc4ccco4)[C@H]3CC[C@@H]2C(=O)N1c1cccc(Oc2ccccc2)c1`, the AC50 in [1] is 3.16 µM (inconclusive).

Consider `CCc1ccc(NC(=O)C(CC)c2ccccc2)cc1` (stereo not drawn), for which, in series [9], the EC50 was 10.4 µM (active). On to `O=C(Nc1cc(C(F)(F)F)ccc1Cl)C(Sc1cccc[n+]1[O-])c1ccccc1` (stereo not drawn), for which the EC50 in series [9] was > 53 µM (inactive). Regarding `Cc1ccc(SCN2CCCCC2)cc1.O=C(Cl)c1ccc([N+](=O)[O-])cc1`, in series [3] (read-out: AC50), the AC50 is 2.51 µM (inconclusive). With `CCCCC#Cc1nc(N)c2ncn([C@@H]3O[C@@H](C(=O)NCC)[C@H](O)[C@@H]3O)c2n1`, the concentration at half-maximal activity (AC50) is 39.8 µM (inconclusive) in series [3] (read-out: AC50), 15.8 µM (inconclusive) in [1] and 25.1 µM (inconclusive) in series [7]. Take `Oc1c(CN2CCOCC2)ccc(CN2CCOCC2)c1O`: the AC50 in [7] is 7.94 µM (inconclusive). For the molecule `CCOc1ccc(C(C)NC(=S)NCc2ccc(Cl)cc2)cc1` (stereo not drawn), in series [9], the EC50 was 14.6 µM (active). In the case of `CN1CCN(c2ncc3nc(-c4cc(F)cc(F)c4)c(=O)n(C4CC4)c3n2)CC1`, the half-maximal activity concentration (AC50) in series [1] is 39.8 µM (inconclusive). Take `COc1ccc(N(C)C(=O)c2oc(=O)c3ccccc3c2-c2ccccc2)c(OC)c1`: in [8], the EC50 was > 195 µM (not active). As for `COc1ccc(-n2c(SCC(=O)Nc3ccccc3)nnc2-c2ccoc2C)cc1`, the EC50 was 29.7 µM (active) in series [4], > 120 µM (not active) in series [5] and 15.9 µM (active) in [6].

Consider `CNc1ccnc(-c2ccccc2OC)n1`, for which the AC50 in series [1] is 31.6 µM (inconclusive). In the case of `CNc1ncncc1-c1ccccc1CN(C)C`, the AC50 entry in [3] is “inconclusive”. Regarding `COC(=O)[C@@H](NC(=O)Nc1ccc(C(C)=O)cc1)C(C)C`, in [7], the AC50 was 3.55 µM (inconclusive). In the case of `COc1cccc(Cn2c(=O)c(C)nc3cnc(Nc4ccccc4)nc32)c1`, the AC50 in series [2] was 1 µM (inconclusive). Turning to `CC(=O)[C@@H]1CC[C@@H]2[C@@H]3CC=C4C[C@H](OS(=O)(=O)O)CC[C@@]4(C)[C@H]3CC[C@]21C`, the half-maximal activity concentration (AC50) in series [1] is 12.6 µM (inconclusive). Consider `Cc1cc(C)c(OCC(=O)Nc2ccccc2N2CCOCC2)c(C)c1`, for which the EC50 in series [9] is > 53 µM (inactive). Take `c1csc(CNc2ncncc2-c2ccoc2)c1`: in series [7], the AC50 is 0.794 µM (inconclusive). For `CO[C@H]1COC(=O)CCC[C@@H](C)[C@H](OC)COC(=O)[C@H]2CCCN2C(=O)C/C=C\[C@@H]1C`, the AC50 in series [1] was 5.01 µM (inconclusive). Same read-out and setting: under `CCOC(=O)c1[nH]c(C)c(C(=O)N2CCC3(CC2)OCCO3)c1C` stands 22.4 µM (inconclusive). Take `Cc1cc2cccc(C)c2nc1SCC(=O)N(C)c1nc(-c2ccccc2)cs1`: in series [7], the AC50 was 2.82 µM (inconclusive). In the case of `CCOc1cc2[nH]c(=O)n(CCC(=O)NCc3ccc(OC)cc3)c(=O)c2cc1OCC`, the half-maximal activity concentration (AC50) in [7] was 2 µM (inconclusive). Take `COc1cccc(NC(=O)Cc2c(C(=O)O)[nH]c3ccccc23)c1`: the results for the AC50 in series [1] and in [7] were 15.8 µM (inconclusive) and 22.4 µM (inconclusive), respectively.

Turning to `O=c1cnc2cnc(Nc3ccccc3)nc2n1C1CC1`, the figures for the half-maximal activity concentration (AC50) in series [3] (read-out: AC50), in series [1] and in series [7] were 20 µM (inconclusive), 25.1 µM (inconclusive) and 31.6 µM (inconclusive), respectively. For `CC(=O)OC[C@@H]1O[C@H](C/C=N\O[C@@H](C)CN2CCCc3nc(C)c(C)cc32)C=C[C@@H]1OC(C)=O`, the concentration at half-maximal activity (AC50) in series [1] was 3.98 µM (inconclusive). Turning to `COC(=O)N1CCC2(CCCN(Cc3ccc(C#N)cc3)C2)CC1`, the AC50 was 7.94 µM (inconclusive) in series [3] (read-out: AC50) and 15.8 µM (inconclusive) in [1]. For the molecule `Cc1cccc(/C=C2\CCC(=C3SCCCS3)C2=O)c1`, the EC50 is 9.28 µM (active) in series [4], 5.22 µM (active) in series [5] and 8.14 µM (active) in [6]. Take `CCCNS(=O)(=O)c1ccc(Oc2ncc(C(F)(F)F)cc2Cl)cc1`: the EC50 in series [9] is > 53 µM (inactive). Take `O=C1c2ccccc2C(=O)N1CC1CCCO1` (stereo not drawn): the figures for the concentration at half-maximal activity (AC50) in [3] (read-out: AC50) and in series [7] were 0.355 µM (inconclusive) and 0.398 µM (inconclusive), respectively. In the case of `CC(CNC(=O)c1ccc(NC2=NC3CS(=O)(=O)CC3S2)cc1)c1ccccc1` (stereo not drawn), in series [9], the EC50 is > 53 µM (inactive). Turning to `O=C(NCC(c1ccco1)N1CCCC1)c1cc2cc(Cl)ccc2o1` (stereo not drawn), the EC50 in [9] is > 53 µM (inactive). For `C/C(=N\OCc1cccc(C(=O)O)c1)c1ccc(Cl)cc1`, the EC50 in series [4] was 0.254 µM (active); in series [5] it was 7.12 µM (inconclusive); in [6], 4.77 µM (active).

As to `CCOc1cc(/C=N/NC(=O)CN(CCc2ccccc2)S(=O)(=O)c2ccc(NC(C)=O)cc2)ccc1O`, the EC50 in series [8] was > 195 µM (not active). On to `COc1ccccc1CNc1ncncc1-c1cccc(NS(C)(=O)=O)c1`, for which the half-maximal activity concentration (AC50) in series [2] was 12.6 µM (inconclusive). With `O=C(O)c1cc2cc(F)ccc2[nH]1` [5-FLUOROINDOLE-2-CARBOXYLIC ACID], in [8], the EC50 is listed as > 195 µM (not active).

(Values after ChEMBL document CHEMBL1201862, “PubChem BioAssay data set” (2004).)
